Structures are written as SMILES.

Data on 3 compounds can be found in US20040092590A1, “Glycemic control for prediabetes and/or diabetes Type II using docosahexaenoic acid” (priority 2002, published 2004).

One data set concerns patients. Conditions: cited from earlier work.
For data set [1], the system named is KK-Ay mouse (obese diabetic mice). Conditions: 100 mg/kg body weight, not normal or lean diabetic mice; cited from earlier work.
Data set [2] deals with patients with dyslipidemia. The data set is described as follows: Clinical study: DHASCO capsules co-administered with statin medication for 12 months. The class given is in vivo, human. The conditions noted are these: patients treated with DHA. The source says:
Thus, the present inventors have discovered that DHA has a long term effect (as shown by reduction in glycosylated hemoglobin levels reflecting longer term glucose control integrated over 2-3 months). Finally, the inventors have discovered that therapy using DHA-containing oils can be effective at DHA levels that are not excessive (e.g., at levels which minimize side effects associated with fatty acid ingestion).
In a clinical study, DHASCO capsules (which contained DHA as a triglyceride oil extracted from Crypthecodinium cohnii cells, obtained from Martek Biosciences Corp., Columbia, Md.) were co-administered with statin medication to patients with dyslipidemia. Hyperlipidemic patients already being treated with a stable dose of a statin medication but still failing to meet NCEP guidelines for LDL-cholesterol or triglycerides were treated with either 200 or 1000 mg of DHA daily for 12 months. HbA1c levels (glycosylated hemoglobin, a marker of glycemic control) were measured in plasma at baseline and after 8 or 12 months of treatment.
Reduction in CRP of this extent is clinically significant, and may be correlated with a benefit of reduced risk of Type II diabetes onset, independent of other Type II risk factors.

Data set [3] relates to subjects with HDL levels below the sex-specific median. The data set is described as follows: Randomized, double-blind, controlled trial of DHASCO-S capsules, six weeks; metabolic disturbance score, serum lipids, LDL particles. Type of data set: in vivo, human. Conditions: 1.52 g DHA per day. The source says:
DHASCO-S capsules (which contained DHA as a triglyceride oil extracted from Schizochytrium sp. cells, obtained from Martek Biosciences Corp., Columbia, Md.) were used in the following study. Subjects (n=57) were enrolled in a randomized, double-blind, controlled trial to assess the response to 1.52 g of DHA per day for six weeks. Subjects were aged 21-80 and had HDL levels below the sex-specific median (a criterion for metabolic syndrome). The average triglyceride (TG) level at the beginning of the study was 169-179 mg/dl (metabolic syndrome criterion >150 mg/dL). The average distribution of LDL particles in this population was 44-50% small dense particles. Small dense particles are another lipid hallmark of metabolic syndrome. […] The average waist circumference for men and women combined was about 100+/−2.5 cm (criterion for metabolic syndrome is about 88 cm for women and about 102 cm for men). The average blood pressure in the study was normotensive at 120/77 mmHg.
The metabolic disturbance score was calculated to assess the relationship between independent variables and the criterion related to metabolic syndrome. The score is a composite of values for selected risk factors including: serum triglycerides, serum HDL cholesterol, systolic blood pressure, waist circumference, and fasting serum glucose. The following formula was utilized to calculate the metabolic score, where Z=the z score, i.e., the number of standard deviations above or below the mean value for each variable (Micciolo 1991; Maki 1994): Metabolic Disturbance Score=Z for triglycerides+Z for systolic blood pressure+Z for waist circumference+Z for glucose−Z for HDL cholesterol. Since triglyceride values were not normally distributed, a natural log-transformation was performed to normalize the distribution prior to calculating the Z score.
Additionally, pre-specified subgroup analyses were performed for serum lipid and metabolic disturbance score values. The triglyceride subgroups were split at the median baseline value (170 mg/dL). A Body Mass Index (BMI) of 30 kg/m^2 was chosen as the cut-point for BMI subgroups (BMI<30 kg/m2 and BMI≧30 kg/m^2) because persons with a BMI≧30 kg/M^2 are considered obese (Expert Panel 1998).

For `CN(C)C(=N)N=C(N)N` [Metformin], in the data set on patients (fraction of patients), the “patients with gastrointestinal reactions” value is reported as “about a third”. In the data set on patients (rare reaction), the “lactic acidosis cases that are fatal” value is “about 50%”.
Consider `CC/C=C\C/C=C\C/C=C\C/C=C\C/C=C\C/C=C\CCC(=O)OCC` [DHA ethyl ester], for which, in data set [1], the blood glucose entry was “reduced”, the insulin sensitivity result is listed as “enhanced” and the plasma triglycerides result is listed as “reduced”.
For the compound `CC/C=C\C/C=C\C/C=C\C/C=C\C/C=C\C/C=C\CCC(=O)O` [DHA, docosahexaenoic acid], in data set [2], the “overall reduction in CRP levels” value is on record as 15%. Moreover, the “increase in large LDL particles from baseline to end of treatment” value in data set [3] (P=0.028 vs control) is listed as 32.4%. For the same compound, the “change in small LDL particles from baseline” value in data set [3] (P=0.191 vs control) is recorded as −23.2%. In data set [3] (p=0.001 vs control), the “change in TG from baseline” value is reported as −25.4%. Further, the “increase in HDL” value in data set [3] (p=0.102 vs control) is listed as “+9.0%”. For the same compound, the “change from baseline in metabolic disturbance score, subgroup” value in data set [3] (subjects with baseline triglycerides >=170 mg/dL, p=0.001 vs control) is recorded as −1.16.
